Assay results: US10793527B2, “Adenosine monophosphate-activated protein kinase agonist” (NATIONAL YANG-MING UNIVERSITY, priority 2016, dated 2020)

Legend:
[1] = biological target: T1, AMPKα1 immunoprecipitated protein extract (Homo sapiens, UniProt Q13131); experiment: AMPK enzyme activity assay (SAMS peptide), AMPKα1 immunoprecipitated from PLC5 protein extract; format: biochemical; conditions: 20-20,000 nM compound; compared to the group without compound addition (FIG. 1A)
T1 construct: AMPKα1 immunoprecipitated protein extract; endogenous in cells; host or cells: PLC5 liver cancer cells (immunoprecipitate on Protein A/G magnetic beads)
Description: (§1) The protein extract of liver cancer cell PLC5 and the anti-AMPKα1 antibody were incubated in an immunoprecipitation buffer (G-Biosciences) overnight. Protein A/G Magnetic Beads (PureProteome™) are added to each sample respectively and incubated at 4° C. for 4 hours. In the case of the recombinant protein AMPK, 12.5 ng of the recombinant protein human AMPK (α1, β1, γ1) is incubated with various doses of the compound, and then AMPK activities are detected based on the manual of the SAMS peptide assay (Cyclex).
(§2) It is shown by FIGS. 1A and 1B that the SCT-1015 compound can increase the activity of AMPK in liver cancer cells.

[2] = biological target: recombinant protein human AMPK (α1, β1, γ1) (Homo sapiens, UniProt Q13131); experiment: AMPK enzyme activity assay (SAMS peptide), recombinant protein; format: biochemical; conditions: 20-2,000 nM compound; compared with the group without compound addition (FIG. 1B)
Description: as §1, §2

[3] = system: AMPK T172; experiment: Detection of AMPK phosphorylation by ELISA assay in PLC5 cells; format: cell-based; conditions: PLC5 cultured with 10 μM compound for 24 hours, compared to control group
Description: In this analysis, the commercial kit AMPK […] Phospho-ELISA Kit (KHO0651) produced by ThermoFisher Science is utilized. The hepatoma cell PLC5 is cultured with 10 μM of the compound for 24 hours, and the analysis is performed according to the manual, and the absorbance was detected at a wavelength of 450 nm.

[4] = system: PLC/PRF/5 (PLC5) cells; experiment: Cell viability of liver cancer cells (Prestoblue), PLC5; format: cell-based
Description: (§3) Hepatoma cell Huh-7 was obtained from Health Science Research Resources Bank (HSRRB, Osaka. Japan; JCRB0403); Hepatoma cell PLC/PRF/5 (PLC5), Sk-Hep-1 and HCC1806 were obtained from the American Type Culture Collection (ATCC, Manassas, Va.). All cell lines are cultured immediately and frozen, so the frozen cells can be thawed every 3 months to allow experiments are conducted with the same batch of cells.
(§4) Analysis is performed using a commercial kit Prestoblue assay produced by Thermo Fisher Scientific. Three liver cancer cell lines PLC/PRF/5, SK-hep1, and Huh-7 are cultured with compound SCT-1015 for 48 hours and 72 hours, respectively. […] The results support that the compound of the present invention can activate AMPK to inhibit the proliferation of liver cancer cells.

[5] = system: phosphorylated AMPKα (p-AMPKα); experiment: Detection of AMPK phosphorylation by immuno-blot assay; format: cell-based; conditions: PLC5, MDA-MB-231 and MDA-MB-453 cells; compared with the non-treated group (FIGS. 2A-2C)
Description: (§5) The liver cancer cell PCL5 and the triple negative breast cancer cell (TNBC) MBA-MB-231 and MDA-MB-453 are cultured with the compound SCT-1015, respectively. The cells are collected, wash, and lysed by RIPA buffer to obtain a protein extract. The protein concentration was measured by Bio-Rad Protein Assay dye reagent (Bio-Rad). The protein samples are diluted with 2 times SDS-loading buffer (100 mM Tris HCl, pH 6.8, 200 mM β-mercaptoethanol, 4% SDS, 0.02% bromophenol blue, and 20% glycerol) to adjust volume, and electrophoresis is carried out using 10% SDS polyacrylamide gels and followed by transferring to PVDF membrane. The primary antibody is added to detect the target protein on the membrane, and then the secondary antibody with horseradish peroxidase is added, followed by addition of substrate (enhanced SuperSignal West Pico Cheminluminescent Substrate, Pierce) to obtain the signal of the specific protein. and the protein content is determined by β-actin. The β-actin is used as an internal control for protein amount.

[6] = system: HIF1 and PDHK1; experiment: Immuno-blot of downstream signaling molecules in liver cancer cell lines; format: cell-based; conditions: PLC/PRF/5, SK-hep1 and Huh-7 (FIG. 2D)
Description: as §5

[7] = system: SK-hep1 cells; experiment: Cell viability of liver cancer cells (Prestoblue), SK-hep1; format: cell-based; conditions: 5-20 μM, 48 hours and 72 hours, compared with control (DMSO) (FIG. 3)
Description: as §3, §4

[8] = system: Huh-7 cells; experiment: Cell viability of liver cancer cells (Prestoblue), Huh-7; format: cell-based; conditions: 5-20 μM, 48 hours and 72 hours, compared with control (DMSO) (FIG. 3)
Description: as §3, §4

[9] = system: HCC1806/luc2 cells; experiment: In situ triple negative breast cancer mouse model (HCC1806/luc2-bearing orthotopic mice), IVIS; format: in vivo; conditions: 20 mg/kg, fed daily for 14 days (FIG. 4)
Description: An in situ triple negative breast cancer mouse model (HCC1806/luc2-bearing orthotopic mice) is established with HCC1806 cells carrying the luciferase (luc2) gene. The experimental mice are divided into two groups, namely (1) control group: solvent; (2) experimental group: compound SCT-1015 (20 mg/kg), and the mice are fed daily for 14 days. On day 0 and day 14, the substrate of luciferase is injected into the peritoneal cavity of mice, and the luminescence from HCC1806/luc2 cells is detected by in vivo imaging system (IVIS) to monitor cell growth.
The results support that the compound of the present invention can activate AMPK to inhibit the growth of triple-negative breast cancer cells.

[10] = system: mature adipocytes; experiment: Cell growth of adipocytes (adipoRed staining, cell imaging); format: cell-based, human
Description: (§6) According to the standard procedure of adipocyte differentiation, human pre-adipocytes are treated with adipogenesis reagent (Gibco StemPro) for 14 days to induce differentiation into mature adipocytes. Next, mature adipocytes are treated with different concentrations of compound SCT-1015 (100 μM, 25 μM, 12.5 μM, 5 μM, and 2.5 μM), solvent only (Mock), or non-treated and cultivated for 48 hours. Then, the adipocytes are stained with adipoRed (Lonza inc.), and the cell number is evaluated by fluorescence signals measured at excited and emission wavelength are 485 nm and 572 nm, respectively. In addition, after the cells were treated with 2.5 μM. of the compound SCT-1015, the cell morphology was also observed through cell imaging.

[11] = system: undifferentiated cells; experiment: Morphology of undifferentiated cells in the adipocyte culture; format: cell-based; conditions: 2.5 μM (FIG. 5B)
Description: as §6

[12] = Treatment of diet-induced obesity (DIO) mice, body weight; format: in vivo; conditions: compared to the control group of mice (FIG. 6)
Source text: The male mice C57BL/6 were purchased from the National Laboratory Animal Center (NLAC, Taipei, Taiwan) and fed high-fat-die for 4 weeks to establish the diet-induced obesity (DIO) mouse model for subsequent experiments

T1 sequence (Q13131 whole entry): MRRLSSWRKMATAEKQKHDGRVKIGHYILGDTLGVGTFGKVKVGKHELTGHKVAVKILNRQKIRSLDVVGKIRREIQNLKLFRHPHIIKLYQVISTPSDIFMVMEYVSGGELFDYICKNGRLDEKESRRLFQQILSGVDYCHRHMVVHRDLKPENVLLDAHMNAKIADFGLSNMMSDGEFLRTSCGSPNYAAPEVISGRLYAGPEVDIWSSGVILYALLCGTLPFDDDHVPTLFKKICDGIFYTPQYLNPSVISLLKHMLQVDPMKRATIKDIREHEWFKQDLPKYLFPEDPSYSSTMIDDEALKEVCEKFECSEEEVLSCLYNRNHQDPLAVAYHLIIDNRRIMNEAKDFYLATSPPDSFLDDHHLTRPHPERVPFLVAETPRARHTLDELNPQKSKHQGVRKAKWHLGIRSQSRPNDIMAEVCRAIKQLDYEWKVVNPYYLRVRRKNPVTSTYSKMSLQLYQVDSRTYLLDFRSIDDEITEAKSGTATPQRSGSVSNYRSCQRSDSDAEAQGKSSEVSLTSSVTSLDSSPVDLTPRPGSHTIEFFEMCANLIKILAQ
T1 sequence (Q9Y478 2-270 partner limits assumed): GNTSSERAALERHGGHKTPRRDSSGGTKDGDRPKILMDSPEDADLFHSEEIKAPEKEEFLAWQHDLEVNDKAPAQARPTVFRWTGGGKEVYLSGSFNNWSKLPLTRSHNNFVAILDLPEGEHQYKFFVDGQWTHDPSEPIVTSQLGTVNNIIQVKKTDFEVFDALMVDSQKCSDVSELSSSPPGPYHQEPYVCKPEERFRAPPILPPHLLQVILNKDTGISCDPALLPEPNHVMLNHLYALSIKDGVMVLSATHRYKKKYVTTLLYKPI
T1 sequence (P54619 whole entry partner): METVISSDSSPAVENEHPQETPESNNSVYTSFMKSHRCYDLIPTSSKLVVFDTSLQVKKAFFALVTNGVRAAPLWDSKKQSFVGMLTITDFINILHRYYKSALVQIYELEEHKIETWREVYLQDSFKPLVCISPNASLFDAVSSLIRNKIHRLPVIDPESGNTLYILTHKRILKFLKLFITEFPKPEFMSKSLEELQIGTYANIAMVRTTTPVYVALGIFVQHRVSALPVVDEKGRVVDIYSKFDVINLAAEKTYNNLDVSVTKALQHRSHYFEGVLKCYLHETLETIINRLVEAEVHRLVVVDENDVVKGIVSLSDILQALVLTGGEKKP
Chain of recombinant protein human AMPK (α1, β1, γ1) (Q13131 whole entry): as the sequence (Q13131 whole entry) above
Chain of recombinant protein human AMPK (α1, β1, γ1) (Q9Y478 whole entry partner): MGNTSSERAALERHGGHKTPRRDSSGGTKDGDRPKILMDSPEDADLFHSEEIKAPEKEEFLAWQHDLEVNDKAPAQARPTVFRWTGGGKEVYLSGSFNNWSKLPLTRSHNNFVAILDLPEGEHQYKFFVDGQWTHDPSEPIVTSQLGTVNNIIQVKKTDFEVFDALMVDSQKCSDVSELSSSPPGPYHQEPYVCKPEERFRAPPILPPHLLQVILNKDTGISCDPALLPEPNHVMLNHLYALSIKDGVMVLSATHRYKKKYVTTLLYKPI
Chain of recombinant protein human AMPK (α1, β1, γ1) (P54619 whole entry partner): as the sequence (P54619 whole entry partner) above

With `O=C(Nc1cccc(Nc2nccc(-c3ccc[nH]3)n2)c1)Nc1ccc(Cl)c(C(F)(F)F)c1` [SCT-1015, 1-(3-((4-(1H-pyrrol-2-yl)pyrimidin-2-yl)amino)phenyl)-3-(4-chloro-3-(trifluoromethyl)phenyl)urea] as the compound, how does the AMPK activity [1] read?
Its AMPK activity is “significant increase”.

What about the “activity of the recombinant protein AMPKα1/β1/γ1” value [2] of the same compound?
The value was “significant increase”.

What about the “AMPK T172 activity” value [3] of the same compound?
Its value is 1.8 fold.

What about the IC50 ([4]; PLC5 cells, 48 hr) of the same compound?
Its IC50 is 12.1 µM.

And the cell proliferation ([4]; PLC/PRF/5, 5-20 μM, 48 hours and 72 hours, compared with control (DMSO) (FIG. 3))?
Its cell proliferation is “inhibit the cell proliferation significantly”.

What about the “expression of phosphorylated AMPKα (p-AMPKα)” value [5] of the same compound?
The value was “significantly increased”.

What about the “regulation of downstream signaling molecules HIF1 and PDHK1” value [6] of the same compound?
Its value is “regulates the downstream signaling molecules HIF1 and PDHK1”.

What about the cell proliferation [7] of the same compound?
The cell proliferation was “inhibit the cell proliferation significantly”.

And the cell proliferation [8]?
The cell proliferation was “inhibit the cell proliferation significantly”.

What about the “number of HCC1806/luc2 cell on day 14 compared to control group” value [9] of the same compound?
Its value is “significantly less”.

And the “number of HCC1806/luc2 cell on day 14 compared to day 0” value [9]?
The value was “does not show noteworthy increase”.

And the “cell morphology of mature adipocytes” value ([10]; 2.5 μM (FIG. 5B))?
The value was “shrinkage and death”.

And the “number of the mature adipocytes” value ([10]; 2.5-100 μM, 48 hours, compared to control (Mock), dose-dependent (FIG. 5A))?
Its value is “significantly decreased”.

And the “cell morphology of undifferentiated cells” value [11]?
Its value is “maintain a healthy cell morphology”.

And the body weight lost [12]?
Its body weight lost is 5%.
